Test results as given in US20020037844A1, “SYNTHETIC PEPTIDE FOR TREATMENT OF AUTOIMMUNE ARTHRITIS” (priority 1993, published 2002).
“Also recorded” adds a separate entry of the source. Values belong to the substance of their own block, whether it stands above or below them.

How the values were obtained:
[1] = target: T1, I-A^q on the surface of antigen presenting cells (Mus musculus, UniProt P04227+P06342); experiment: Competitive antigen presentation assay: pulsed APC presented to CII 245-270 specific T-cell hybridomas, IL-2 titer; type: cell-based, DBA/1 mice; conditions: for Binding to I-A^q / competition for presentation of the wild type peptide to T-cell hybridomas: conclusion from Table II
T1 construct: containing 4×10^5 syngenic spleen cells and 10^5 T-hybridoma cells; from tissue; host or cells: spleen cells syngeneic to DBA/1 mice (H-2q), used as antigen presenting cells
Experimental: Lymph node cells were obtained from DBA/1 mice immunized with α1(II)-CB11 emulsified with complete Freund's adjuvant and cultured in vitro with α1(II)-CB11 for five days, and in the presence of IL-2 for three days before fusion. Hybridoma cells reactive to CB11 [CII 245-270] and CII were cloned by limiting dilution to 0.3 cells/well. Antigen presentation experiments were performed in 96 well […] plates in a total volume of 0.3 ml containing 4×10^5 syngenic spleen cells and 10^5 T-hybridoma cells. For competitive inhibition assays, spleen cells were pulsed with various ratios of inhibitor to indicator peptide and washed several times prior to addition to the antigen presentation culture. Cell cultures were maintained at 37° C. in 5% humidified CO2 for 20 to 24 hours, after which seven 80 μl two-fold serial dilutions were made for determination of IL-2 titers. Four thousand HT-2 cells were added to each supernatant dilution, and after 16 to 20 hours HT-2 cell viability was evaluated by visual inspection. IL-2 titers were determined by the reciprocal of the highest two-fold serial dilution maintaining 90% viability of the HT-2 cells. Results are presented as units of IL-2 per ml of undiluted supernatant as described by Kapper et al. Kappler, J., J. White, D. Wegman, E. Mustain, and P. Marrack, 1982, Antigen Presentation by Ia^+B Cell Hybridomas to H-2 Restricted T Cell Hybridomas. Proc. Natl. Acad. Sci. USA 79:3604. The disclosure of this article is incorporated by reference.
The inability of some analog peptides to stimulate T cells likely occurs either because of disruption of peptide binding to the I-A^q molecule or the inability of the T cell receptor to recognize the peptide. In order to determine whether the analog peptides could bind to the class II molecule, competitive antigen presentation assays were performed. Antigen presenting cells (APC) were pulsed with various molar ratios of CII 245-270 and an analog peptide, and tested for their ability to stimulate CII 245-270 specific T cell hybridomas.

CII-primed, bulk T cells = experiment: Inhibition of antigen presentation to CII-primed bulk T cells (co-culture); type: cell-based, DBA/1 mice; conditions: analog co-cultured with CII 245-270 or native CII at various ratios; FIG. 2
Experimental: T cell stimulation assays were performed in 96 well plates and the degree of stimulation was quantitated by measurements of γ-IFN production. Myers, L. K., K. Terato, J. M. Seyer, J. M. Stuart, and A. H. Kang, 1992, Characterization of a Tolerogenic T Cell Epitope of Type II Collagen and its Relevance to Collagen-Induced Arthritis. J. Immunol. 149:1439. The disclosure of this article is incorporated by reference. Spleens and lymph nodes from mice immunized with CII 14 to 21 days prior were individually minced into single cell suspensions in Hank's Balanced Salt Solution (BSS) and washed 3 times. […] Supernatants were collected from 72 to 120 hours later and either […] analyzed for γ-IFN production immediately or stored at −70° C. prior to analysis. Quantitative measurement of murine gamma interferon was done using a solid-phase enzyme-linked immunosorbent assay (Amgen Biologicals, Thousand Oaks, Calif.). […] The absorbance was measured at 405 nm with a spectrophotometer, and a standard curve was obtained by plotting the absorbance versus the corresponding concentration of the standards. Units of γ-interferon were calculated based on NIH standard number Gg02-901-533. […]

CII-primed T cells = experiment: T cell stimulation assay, γ-IFN production by CII-primed spleen and lymph node cells; type: cell-based, mice; conditions: CII-primed T cells cultured with 100 μm of antigen; FIG. 1
Experimental: Nowarck H., E. Hahn, R. Timple, 1976, “Requirements for T Cells in the Antibody Response of Mice to Calf Skin Collagen,” J. Immunol. 30:29. Each peptide was cultured with pooled spleen and lymph node cells from CII-immunized mice, and culture supernatant fluids were tested for the presence of γ-interferon as an indicator of T cell stimulation. T cell hybridomas were established by polyethylene glycol-induced fusion of lymph node cells with the T cell receptor α^−/β^−thymoma line, BW5147. White, M., M. Blackman, J. Bill, J. Kappler, P. Marrack, D. P. Gold, and W. Born, 1989, Two Better Cell Lines for Making Hybridomas Expressing Specific T Cell Receptors. J. Immunol. 143:1822. […]
T cell stimulation assays were performed in 96 well plates and the degree of stimulation was quantitated by measurements of γ-IFN production. […] Supernatants were collected from 72 to 120 hours later and either […] analyzed for γ-IFN production immediately or stored at −70° C. prior to analysis. Quantitative measurement of murine gamma interferon was done using a solid-phase enzyme-linked immunosorbent assay (Amgen Biologicals, Thousand Oaks, Calif.). […] The absorbance was measured at 405 nm with a spectrophotometer, and a standard curve was obtained by plotting the absorbance versus the corresponding concentration of the standards. Units of γ-interferon were calculated based on NIH standard number Gg02-901-533. […]

[2] = system: antibodies reactive with type II collagen; experiment: Serum antibodies to CII by ELISA in co-immunized mice; type: in vivo, DBA/1 mice; conditions: for Antibodies to CII: serum four weeks after immunization, mean
Experimental: (§1) Mice were bled at four weeks after immunization and the serum was tested for antibodies reactive with type II collagen by enzyme-linked immunoassay (ELISA) described in Stuart, J. M., A. S. Townes, and A. H. Kang. 1982. Nature and Specificity of the Immune Response to Collagen in Type II Collagen-Induced Arthritis in Mice, J. Clin. Invest. 69:673. The disclosure of this article is incorporated by reference An anti-CII serum standard was used in each assay. A standard curve was derived by computer analysis using a 4 parameter logistic curve. Results are reported as units of activity, derived by comparison of test sera with the curve derived from the anti-CII standard which was arbitrarily defined as having 50 units of activity. Sera from mice were tested individually, and means were calculated for each experimental group.
In order to assess the effects of co-immunizing mice with both CII 245-270[s260, 261, 263] and CII, the mean antibody titers to native CII were measured for each immunization group in Table III, four weeks after immunization (Table IV).

[3] = system: collagen induced arthritis in neonatally tolerized mice; conditions: Myers et al. 1989, J. Exp. Med. 170:1999; cited from earlier work
[4] = system: collagen induced arthritis (CIA) in DBA/1 mice; experiment: Collagen induced arthritis, simultaneous immunization with CII and peptide; type: in vivo; conditions: for Development / incidence of arthritis, in words: co-injected with native CII, molar ratio CII:peptide 1:480
antibodies to CII = experiment: Serum antibodies to CII by ELISA in neonatally treated mice; type: in vivo; conditions: 100 μg antigen in IFA intraperitoneally within 24 hours of birth; serum four weeks after immunization; mean titer
Experimental: as §1
The foregoing data support the hypothesis that analog peptide CII 245-270[s260, 261, 263] competes for binding to I-A^q. […] Synthetic peptides were solubilized directly in phosphate buffered saline (PBS) at a concentration of 1 mg/ml. Neonatal mice were tolerized using a protocol described by Gammon et al.^21 in which antigen emulsified with incomplete Freund's adjuvant was injected intraperitoneally. Gammon, Dunn, Shastri, Oki, Wilbur, Sercarz, 1986, Neonatal T Cell Tolerance to Minimal Immunogenic Peptides is Caused by Clonal Inactivation, Nature (Lond) 319:413. […]

[5] = system: collagen induced arthritis in neonatally tolerized mice; experiment: Neonatal tolerance: peptide given at birth, CII challenge at eight weeks, arthritis observed; type: in vivo; conditions: administered to neonatal mice prior to immunization with CII
Description: To measure the incidence of arthritis in immunized mice, individuals examined and scored each of the forepaws and hind paws on a scale of 0-4 as described in Wooley, P. H., H. W. Luthra, J. M. Stuart and C. S. David. 1981. “Type 11 Collagen-induced Arthritis in Mice”. I. Major Histocompatibility Complex (I region) Linkage and Antibody Correlates. J. Exp. Med. 154:688. This article is incorporated herein by reference. There were two separate examiners, one of whom was unaware of the identity of the treatment groups. Each mouse was scored three times a week beginning three weeks post immunization and continuing through 8 weeks post immunization. The incidence of arthritis (number of animals with one or more arthritic limbs) was reported at 6 weeks post immunization, the time point at which the control group reached its peak of disease. The incidence of arthritis in various groups of mice was compared using Fisher's Exact Test. Student's T test was used to compare means of antibody responses to CII.
The foregoing data support the hypothesis that analog peptide CII 245-270[s260, 261, 263] competes for binding to I-A^q. […] Synthetic peptides were solubilized directly in phosphate buffered saline (PBS) at a concentration of 1 mg/ml. […]

Binding to I-A^q / competition for presentation of the wild type peptide to T-cell hybridomas [1]: did not compete
Substance: CII 245-270 [s266, 267, 269]: analog of CII 245-270 with D at 266, T at 267, A at 269 (type I collagen based substitutions) (PTGPLGPKGQTGELGIAGFKGDTGAK)
T cell responses to CII 245-270 and CII (CII-primed, bulk T cells): no significant effect
T cell stimulation (γ-interferon) compared to the wild type peptide CII 245-270 (CII-primed T cells): did not respond

Substance: Pro - Thr - Gly - Pro - Leu - Gly - Pro - Lys - Gly - Gin - Thr - Gly - Glx - Leu - Gly - Ile - Ala - Gly - Phe - Lys - Gly - Glx - Gln - Gly - Pro - Lys [CII 245-270, reference compound]
Antibodies to CII ([2]; molar ratio CII:peptide 1:480): 54 ± 25 units of activity
Suppression of arthritis as neonatal tolerogen [3]: suppresses arthritis
Development / incidence of arthritis, in words [4]: did not alter the incidence of disease
Antibodies to CII (antibodies to CII): 18.5 ± 8
Effectiveness as neonatal tolerogen, in words [5]: effective tolerogen

IL-2 ([1]; T-cell hybrid 2qCII92.33, molar ratio competitor:CII 245-270 1.6:1): 160 U/ml
IL-2 ([1]; T-cell hybrid 2qCII92.33, molar ratio competitor:CII 245-270 3.2:1): 80 U/ml
IL-2 ([1]; T-cell hybrid 2qCII92.33, molar ratio competitor:CII 245-270 6.5:1): 20 U/ml
IL-2 ([1]; T-cell hybrid qCII85.33, molar ratio competitor:CII 245-270 1.6:1): 640 U/ml
IL-2 ([1]; T-cell hybrid qCII85.33, molar ratio competitor:CII 245-270 3.2:1): 320 U/ml
IL-2 ([1]; T-cell hybrid qCII85.33, molar ratio competitor:CII 245-270 6.5:1): 40 U/ml
IL-2 ([1]; T-cell hybrid qCII98.10, molar ratio competitor:CII 245-270 1.6:1): 160 U/ml
IL-2 ([1]; T-cell hybrid qCII98.10, molar ratio competitor:CII 245-270 3.2:1): 80 U/ml
IL-2 ([1]; T-cell hybrid qCII98.10, molar ratio competitor:CII 245-270 6.5:1): 40 U/ml
Ability of competitively pulsed APC to stimulate the T-cell hybridomas ([1]; analog:CII 245-270 molar ratios of 6:1 or greater): greatly reduced
Binding to I-A^q / competition for presentation of the wild type peptide to T-cell hybridomas [1]: capable of binding to I-A^q
Substance: Pro - Thr - Gly - Pro - Leu - Gly - Pro - Lys - Gly - Gln - Thr - Gly - Glx - Leu - Gly - Ala - 4Hyp - Gly - Asn - Lys - Gly - Glx - Gln - Gly - Pro - Lys [CII 245-270 [s260, 261, 263], analog of CII 245-270 with alanine at 260, hydroxyproline at 261, asparagine at 263]
Immune responses to CII in vivo as well as in vitro, in words ([2]; co-immunization with CII): significantly down regulated
Antibodies to CII ([2]; molar ratio CII:peptide 1:160): 53 ± 25 units of activity
Antibodies to CII ([2]; molar ratio CII:peptide 1:320): 34 ± 22 units of activity
Antibodies to CII ([2]; molar ratio CII:peptide 1:480): 17 ± 3 units of activity
IL-2 ([1]; T-cell hybrid 2qCII92.33, molar ratio competitor:CII 245-270 13:1): — (A “—” indicates less than 20 U/ml of IL-2 detected)
IL-2 ([1]; T-cell hybrid qCII85.33, molar ratio competitor:CII 245-270 13:1): —* (A “—” indicates less than 20 U/ml of IL-2 detected)
IL-2 ([1]; T-cell hybrid qCII98.10, molar ratio competitor:CII 245-270 13:1): — (A “—” indicates less than 20 U/ml of IL-2 detected)
Incidence of arthritis and number of arthritic limbs, in words ([4]; co-immunized with CII at various molar ratios): dose-dependent decrease
Development / incidence of arthritis, in words [4]: arthritis did not develop
T cell responses to CII 245-270 and CII (CII-primed, bulk T cells): significantly decreased responses to both CII 245-270 and CII in a dose dependent manner
Antibodies to CII (antibodies to CII): 55.6 ± 19
Effectiveness as neonatal tolerogen, in words ([5]; 261, 263]): ineffective as a CII tolergen; also recorded: very poor tolerogen
T cell stimulation (γ-interferon) compared to the wild type peptide CII 245-270 (CII-primed T cells): did not respond
